For orientation: melting point means the temperature, or range, at which the solid turns liquid. Compound `CN1CC2CN(C(=O)N3c4ccccc4NC(=O)c4c3c(Cl)cn4C)CC2C1` (stereo not given) showed a melting point of over 280 °C. Then `COCCNC(=O)c1ccc(C(=O)NS(=O)(=O)c2ccccc2)cn1`, with 190 to 191 °C; and `CCCCCC[C@@H]1C[C@H](c2ccc(O)cc2)C(=O)O1`, with 87 to 88 °C; and `Cc1cc2c(s1)C(C(=O)O)CC2=O` (stereo not given), with 137 to 139 °C.

In turn, `Cc1nccn1-c1cc(NC(=O)OC(C)(C)C)cc(C(F)(F)F)c1` showed a melting point of 203 to 208 °C. Then `CC(=O)N1CCCc2ccc(S(=O)(=O)C[N+](=O)[O-])cc21`, with 155 °C. In the case of `Cc1ccc(C(=O)N(C(C)C)C(C)C)c(F)c1C1=NC(C)(C(C)C)C(=O)N1` (stereo not given) it was 205 to 210 °C; in that of `Cc1ccc(C)c(OCc2ccccc2CCl)c1`, 46.5 to 48.5 °C; in that of `CCC1=NC(=NOC(=O)NC)SC1(C)CC` (stereo not given), 88 to 90 °C. Then `O=C1C[C@H]2CN(C(=O)c3ccc(NC(=O)c4ccccc4-c4ccccc4)cc3)c3ccccc3C(=O)N2C1`, with 159 to 169 °C; and `N#Cc1cnc(Nc2ccc(OCCn3nccn3)cc2)nc1-c1ccccc1`, with 156 °C. For `CC(=O)Nc1ncc(/C=C/c2ncc(C(C)(C)C)o2)s1`, the melting point was found to be 275 °C.

In the case of `COC(=O)c1ccc(Cl)c(C=O)c1SC`, the melting point was in the range of 66.5 to 68.1 °C.

`CC(=O)Oc1ccc(C=CC(=O)NC2CCc3ccccc32)cc1[N+](=O)[O-]` (stereo not given) showed a melting point of 177 to 178 °C. Then `COc1ccc(C(=O)O)c(OCCN2CCC(c3cn(Cc4ccoc4)c4ncccc34)CC2)c1`, with 91.5 to 93.2 °C; and `COc1ccc(-c2cc(=Nc3c(C)cc(C)cc3C)n(C)c(N(C)Cc3ccccc3)n2)cc1OC`, with 96 to 98 °C; and `Oc1c(-c2ccccc2)cc(Cn2c(=S)sc3ccccc32)cc1-c1ccccc1`, with 145 to 146 °C. In the case of `NC[C@H]1CN(c2ccc(N3CCOCC3=O)cc2)C(=O)O1` it was 145 to 147 °C; in that of `CC(=NCCO)c1ccccc1NC(=O)C(Cl)(Cl)Cl`, 182 °C; in that of `CC(C)(C)OC(=O)C(F)=CC1C(C(=O)OC(C#N)c2cccc(Oc3ccccc3)c2)C1(C)C` (stereo not given), 103 °C. In the case of `O=C(O)c1ccc(CN2CCC(CCCC(=O)c3ccc4c(c3)CCN(Cc3ccccc3)CC4)CC2)cc1` it was 165 to 176 °C; in that of `CC1(C(=O)c2c[nH]c3ncc(-c4cccc(N5CCN(S(N)(=O)=O)CC5)c4)nc23)CCCCC1`, 233 to 235 °C. With `O=C(NC/C=C\COc1cc(CN2CCCCC2)ccn1)c1cn[nH]c1`, the melting point lay within 121 to 123 °C. `O=C(O)Cc1cc(C(=O)C=Cc2ccc(C(=O)O)cc2)ccc1O`: the melting point is over 260 °C. The compound `CC(C)(C)C(=O)Nc1ccc(C=CC(=O)N2CCc3c([nH]c4ccccc34)C2c2ccc3c(c2)OCO3)cc1` (stereo not given) yielded a melting point of 172 to 174 °C.

As for `CCCCCCCCCCCCCC(=O)NCCCSc1ccncc1`, the melting point lay in the range of 80 to 81 °C. `CCNC(C)CCNC(CC(=O)O)C(=O)OC1CCCCC1` (stereo not given) gave a melting point of 124 to 128 °C.

`Cn1nncc1-c1cc(C=O)c2occc2c1` gave a melting point of 180 to 182 °C. Then `CN(C)Cc1cccc(OCCCNc2nc(Cc3ccccc3)n[nH]2)c1`, with 140 to 141 °C; and `Nc1cc(Br)cc(Br)c1O`, with 175 to 176 °C. In the case of `Nc1nc(NC2CCCC2)c2ncn(C3C=CC(CO)C3)c2n1` (stereo not given) it was 143 to 146 °C. Compound `Oc1cccc2c1c1cccc(Cl)c1n2Cc1ccc(F)cc1` showed a melting point of 142 to 145 °C. Then `CCOC(CN1C(=O)C2=C(c3ccc(Br)cc3)N(CC(OCC)OCC)C(=O)C2=C1c1ccc(Br)cc1)OCC`, with 198 to 201 °C. In the case of `Nc1ccc2ncnc(Nc3cccc(Cl)c3)c2c1` it was over 150 °C. Take `O=C(O)C1=Cc2cc(C(O)C(F)(F)F)ccc2OC1C(F)(F)F` (stereo not given): the melting point was in the range of 114 to 120 °C. Then `CC(C)c1nc(CCO)n(Cc2ccc([N+](=O)[O-])cc2)c1Sc1cc(Cl)cc(Cl)c1`, with 142 to 145 °C; and `O=S(=O)(c1ccccc1)n1ccc2cc3c(cc21)OCO3`, with 142 to 145 °C; and `Cc1csc(-c2ccc3nnn(Cc4ccc5ncccc5c4)c3n2)c1`, with 153 to 156 °C. In the case of `FC(F)(F)c1cc(C(F)(F)F)n(-c2ccc(NCc3ccncc3)cc2)n1` it was 92 to 94 °C. In turn, `Cc1cc(NCCNC(=O)CCc2cc(C(C)(C)C)c(O)c(C(C)(C)C)c2)nc(Cl)c1C#N` had a melting point of 162 to 165 °C. In the case of `Cc1nnc2ccc(-c3cccc(NC(=O)C4CC4)c3)nn12` it was 255 to 258 °C; in that of `O=C1N(CC2CCCO2)c2cc3c(cc2C12COc1cc4c(cc12)CCO4)OCCO3` (stereo not given), 220 to 225 °C; in that of `OC(CSc1ccnc2ccccc12)c1ccc2ccccc2c1` (stereo not given), 170 to 172 °C. Then `Fc1ccc(N2CC3CCC2CN3Cc2ccccc2)cc1` (stereo not given), with 74 to 76 °C; and `CC(=O)NC[C@H]1CN(c2cc(F)c(N3CCC(Cc4nnn[nH]4)CC3)c(F)c2)C(=O)O1`, with 176 to 178 °C; and `COc1ccc([C@@H](O)[C@@H](N)Cc2ccc(C(F)(F)F)cc2)cc1` (racemic), with 116 to 117 °C. In the case of `CC(C)(C)C(O)(Cn1cncn1)C1CC1c1ccc(Cl)cc1Cl` (stereo not given), the melting point is 98 to 101 °C. In turn, `CCNc1cc(C(C)=O)ccn1` registered a melting point of 55 to 57 °C. In the case of `CCOC(=O)C(O)c1cc(F)cc2cccnc12` (stereo not given) it was 84 to 87 °C. For the compound `O=C(Nc1nc(C(Cl)(Cl)Cl)ns1)c1ccc([N+](=O)[O-])cc1`, the melting point was 214 °C. Then `CCCCOC(=O)Nc1cccc(NC(=O)C=C(C)OC)c1`, with 100 °C; and `COC(=O)C(C(C)C)N(C)S(=O)(=O)c1ccc(-c2ccc([N+](=O)[O-])cc2)cc1` (stereo not given), with 117 to 118 °C; and `COc1cc2c(Nc3ccc(Sc4nccn4C)c(Cl)c3)c(C#N)cnc2cc1N1CCC(N2CCCC2)CC1`, with 225 to 229 °C. As to `OCc1cnc(Cl)c(Cl)c1`, the melting point is 72 to 75 °C. In the case of `CCCCCCCCCCCCCCSc1ccc(C(=O)O)o1` it was 84 to 86 °C; in that of `O=C1C2CCCN2S(=O)(=O)N1CCl` (stereo not given), 46.5 to 47.5 °C. In the case of `O=C(CNc1ccc(F)cc1)Nc1ccccc1C(=O)O` it was 217 to 219 °C; in that of `C=CC(O)(c1cccnc1)C(O)c1ccccc1Cl` (stereo not given), 110 to 112 °C; in that of `O=c1c2cccnc2c(-c2cccc([N+](=O)[O-])c2)nn1Cc1ccncc1`, 167 to 168 °C. Then `O=S1(=O)CCSC(Oc2cccc(Cl)c2)=N1`, with 170 °C; and `O=C1c2ccccc2CN1CCCSc1ccncc1`, with 73 to 74.5 °C. As to `CC(C)(C)c1cc2c(c(C(C)(C)C)c1)O[PH](=O)Oc1c(cc(C(C)(C)C)cc1C(C)(C)C)C2`, the melting point amounted to 164 °C. `N#CSCCNc1c(Cl)cccc1[N+](=O)[O-]`: the melting point fell in the range of 92 to 94 °C.

For `CCCOc1ccc(S(=O)(=O)N2CCN(C)CC2)cc1-c1cc2c(=O)n(C)c(=O)n(CCC)c2[nH]1`, the melting point is 240 °C. In the case of `CCOC(=O)c1[nH]cnc1Cc1ccccc1` it was 149 °C; in that of `CCCCCCCCCCCCCCCC1CN(C(=O)c2cc(OC)c(OC)c(OC)c2)CCN1C(=O)c1cc(OC)c(OC)c(OC)c1` (stereo not given), 68 °C; in that of `OC(c1ccccc1)(c1ccccc1)c1ccccc1Cl`, 87 °C. `CCOC(=O)c1nc(Cc2ccccc2[N+](=O)[O-])n[nH]1`: the melting point fell in the range of 135 to 140 °C. Then `N#Cc1cnc2cc(Cl)c([N+](=O)[O-])cc2c1Nc1ccc(Oc2ccccc2)cc1`, with 220 to 222 °C; and `COc1cc(OC(F)F)nc(N)n1`, with 106 to 107 °C. In the case of `FC(F)(F)c1ccc(C=Cc2nc(CCl)cs2)cc1` it was 93 to 95 °C; in that of `CC(C(=O)OC12CC3CC(CC(C3)C1)C2)c1ccc2nc(N)sc2c1` (stereo not given), 151 to 153 °C; in that of `Cn1nnc2ccc(CNNc3ccc(Cl)cc3)cc21`, 96 °C.

Take `NC(=O)N(O)CC=Cc1cccc(F)c1Sc1ccc(F)cc1`: the melting point was 127 to 128 °C. Then `CCCCNC(=O)NS(=O)(=O)c1c(C(=O)OC)cnn1C`, with 88 to 90 °C; and `FC(F)(F)C1(c2cc(Cl)cc(Cl)c2)CC(c2ccc(-n3ccnc3)cc2)=NO1` (stereo not given), with 193 to 195 °C; and `CN(C)N=C(N)Nc1c(Cl)cccc1Cl`, with over 280 °C. The compound `O=C(O)[C@H](Cc1cncn1COCc1ccccc1)NS(=O)(=O)CCc1ccccc1` had a melting point of 223 to 233 °C. Then `C[C@@H]1C(=O)C[C@H]2C[C@@H]1OO[C@@]2(C)/C=C\c1ccc(F)cc1`, with 84 °C; and `Cc1ccc2[nH]c(NC(=O)c3ccccc3)nc(=O)c2c1`, with 240 to 242 °C.

Compound `Cc1noc(NS(=O)(=O)c2ccccc2-c2ccc(-c3ncco3)cc2Cn2ccnc2C(C)C)c1C` gave a melting point of 184 to 188 °C.

As to `COC(=O)[C@@H]1CCCN1C(=O)c1cccc(O)c1[N+](=O)[O-]`, the melting point lay within 114 to 116 °C. Then `CSc1nnc(-c2ccc3ncn(-c4cccc(OC(F)(F)F)c4)c3c2)o1`, with 149 to 150 °C; and `CCCS(=O)(=O)N=C(NC)NCCSCc1[nH]cnc1C`, with 73 to 74 °C; and `COc1cccc(C2=NN=C(C)Cc3cc(OC)c(OC)cc32)c1`, with 133 to 135 °C. In the case of `O=C(Oc1cc(O)ccn1)c1ccccc1`, the melting point lay within 124 to 127 °C.

`Cc1ccc(C)c2c(=O)oc(=O)[nH]c12` returned a melting point of 295 to 298 °C. Compound `O=C(Nc1cccnc1NCc1ccc(Cl)cc1)c1ccccc1F` returned a melting point of 76 to 78 °C. As for `C#CCSc1nc[nH]n1`, the melting point was in the range of 102 to 104 °C. Then `CC(=O)Nc1cccc(NC(C)=O)c1`, with 190 to 191 °C.

Values taken from a melting point compilation (Tetko et al.; mined from patent text by program, amines drawn as free bases though some values may be those of a salt).
